According to patent US20080015237A1 (ASTRAZENECA AB, priority 2006, published 2008):

Biological target: human Kv1.5 channel (Homo sapiens, UniProt P22460)
Experiment: Test A: Rb+ efflux assay
Type: cell-based
Conditions: CHO cells stably transfected with cDNA for human Kv1.5
Procedure: This assay identifies compounds that block the human Kv1.5 channel potassium channel heterologously expressed in Chinese Hamster Ovary (CHO) cells by means of Rb+ ion efflux using Flame Atomic Absorption Spectroscopy. For experimental studies, CHO cells stably transfected with cDNA for human Kv1.5 were grown as confluent layers in Falcon, 384-well tissue culture-treated black-walled clear-bottomed plates and the plates were incubated overnight at 37° C. in a cell culture incubator.
After incubating overnight the cell plates were washed and a buffer containing Rb+ ions were added to the cell plates. The plates were then incubated for another 3-4 hours in a CO2-incubator (37° C.). Following this incubation period plates were washed, compounds were added and subsequently a buffer containing elevated K+ concentrations were added in order to activate the Kv1.5 channel. Following a short incubation time, aliquots of the supernatants were transferred to supernatant plates for subsequent determination of the Rb+ content using Atomic Absorption Spectrometry (ICR8000 instrument, Aurora Biomed Inc.).

Sequence of human Kv1.5 channel (P22460 whole entry): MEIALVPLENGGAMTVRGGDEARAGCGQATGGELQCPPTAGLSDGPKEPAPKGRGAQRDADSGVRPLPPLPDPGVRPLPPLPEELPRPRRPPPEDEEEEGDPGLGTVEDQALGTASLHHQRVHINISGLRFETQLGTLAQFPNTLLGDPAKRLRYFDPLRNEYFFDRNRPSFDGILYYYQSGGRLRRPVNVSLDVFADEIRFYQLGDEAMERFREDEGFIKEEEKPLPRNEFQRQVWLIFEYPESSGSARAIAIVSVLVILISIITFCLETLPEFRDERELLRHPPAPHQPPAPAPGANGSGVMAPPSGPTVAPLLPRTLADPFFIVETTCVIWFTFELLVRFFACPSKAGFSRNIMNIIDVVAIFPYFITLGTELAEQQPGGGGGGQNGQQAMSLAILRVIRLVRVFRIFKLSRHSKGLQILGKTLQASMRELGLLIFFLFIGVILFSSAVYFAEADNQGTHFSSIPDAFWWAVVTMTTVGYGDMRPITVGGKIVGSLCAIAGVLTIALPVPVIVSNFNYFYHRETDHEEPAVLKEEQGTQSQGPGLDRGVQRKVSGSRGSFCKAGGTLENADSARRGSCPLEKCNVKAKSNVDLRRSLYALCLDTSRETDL

## CCCCNC(=O)C1c2c(F)cccc2C(=O)N1CC(C)c1ccc(Cl)cc1 (stereo not drawn)
  IC50: 1300 nM

## CC(C)(C)NC(=O)C1c2ccccc2C(=O)N1Cc1ccccc1-c1ccc(F)c(F)c1 (single isomer, unassigned) [(1R or 1S)-N-(tert-butyl)-2-[(3′,4′-difluorobiphenyl-2-yl)methyl]-3-oxoisoindoline-1-carboxamide]
  IC50: 13000 nM

## CC(c1ccccc1)N1C(=O)c2ccccc2C1C(=O)NCc1ccccc1 (single isomer, unassigned) [(1R or 1S)-N-benzyl-3-oxo-2-[(1S or 1R)-1-phenylethyl]isoindoline-1-carboxamide]
  IC50: 1500 nM

## CCCCNC(=O)C1c2cc(F)ccc2C(=O)N1CC(C)c1ccc(Cl)cc1 (single isomer, unassigned) [(1R or 1S)-N-butyl-2-[(2R or 2S)-2-(4-chlorophenyl)propyl]-6-fluoro-3-oxoisoindoline-1-carboxamide]
  IC50: 500 nM

## CCCCNC(=O)C1c2cc(F)ccc2C(=O)N1CC(C)c1ccc(Cl)cc1 (single isomer, unassigned) [(1R or 1S)-N-butyl-2-[(2S or 2R)-2-(4-chlorophenyl)propyl]-6-fluoro-3-oxoisoindoline-1-carboxamide]
  IC50: 1700 nM

## CC(C)(C)NC(=O)C1c2ccccc2C(=O)N1Cc1ccccc1-c1ccc(F)c(F)c1 (single isomer, unassigned) [(1S or 1R)-N-(tert-butyl)-2-[(3′,4′-difluorobiphenyl-2-yl)methyl]-3-oxoisoindoline-1-carboxamide]
  IC50: 5500 nM

## CCCCNC(=O)C1c2cc(F)ccc2C(=O)N1CC(C)c1ccc(Cl)cc1 (single isomer, unassigned) [(1S or 1R)-N-butyl-2-[(2R or 2S)-2-(4-chlorophenyl)propyl]-6-fluoro-3-oxoisoindoline-1-carboxamide]
  IC50: 730 nM

## CCCCNC(=O)C1c2cc(F)ccc2C(=O)N1CC(C)c1ccc(Cl)cc1 (single isomer, unassigned) [(1S or 1R)-N-butyl-2-[(2S or 2R)-2-(4-chlorophenyl)propyl]-6-fluoro-3-oxoisoindoline-1-carboxamide]
  IC50: 15000 nM

## Cc1c(O)ccc2c1C(=O)N(Cc1ccccc1-c1ccccc1)C2C(=O)NC(C)(C)C (single isomer, unassigned) [(R or S) 2-(biphenyl-2-ylmethyl)-N-(tert-butyl)-5-hydroxy-4-methyl-3-oxoisoindoline-1-carboxamide]
  IC50: 1100 nM

## Cc1c(O)ccc2c1C(=O)N(Cc1ccccc1-c1ccccc1)C2C(=O)NC(C)(C)C (single isomer, unassigned) [(S or R) 2-(biphenyl-2-ylmethyl)-N-(tert-butyl)-5-hydroxy-4-methyl-3-oxoisoindoline-1-carboxamide]
  IC50: 17000 nM

## N#Cc1cccc(CNC(=O)C2c3ccccc3C(=O)N2Cc2cccc(Cl)c2)c1 (stereo not drawn) [2-(3-chlorobenzyl)-N-(3-cyanobenzyl)-3-oxoisoindoline-1-carboxamide]
  IC50: 2000 nM

## O=C(NCCCC(F)(F)F)C1c2ccccc2C(=O)N1Cc1ccccc1-c1ccccc1 (stereo not drawn) [2-(biphenyl-2-ylmethyl)-3-oxo-N-(4,4,4-trifluorobutyl)isoindoline-1-carboxamide]
  IC50: 1500 nM

## O=C(NCc1ccc(C(F)(F)F)nc1)C1c2ccccc2C(=O)N1Cc1ccccc1-c1ccccc1 (stereo not drawn) [2-(biphenyl-2-ylmethyl)-3-oxo-N-{[6-(trifluoromethyl)pyridin-3-yl]methyl}isoindoline-1-carboxamide]
  IC50: 940 nM

## CC(C)(C)NC(=O)C1c2cc(Br)ccc2C(=O)N1Cc1ccccc1-c1ccccc1 (stereo not drawn) [2-(biphenyl-2-ylmethyl)-6-bromo-N-(tert-butyl)-3-oxoisoindoline-1-carboxamide]
  IC50: 2400 nM

## O=C(NCCCC(F)(F)F)C1c2cc(Cl)ccc2C(=O)N1Cc1ccccc1-c1ccccc1 (stereo not drawn) [2-(biphenyl-2-ylmethyl)-6-chloro-3-oxo-N-(4,4,4-trifluorobutyl)isoindoline-1-carboxamide]
  IC50: 610 nM

## CCCNC(=O)C1c2cc(Cl)ccc2C(=O)N1Cc1ccccc1-c1ccccc1 (stereo not drawn) [2-(biphenyl-2-ylmethyl)-6-chloro-3-oxo-N-propylisoindoline-1-carboxamide]
  IC50: 1100 nM

## O=C(NCc1ccc(C(F)(F)F)nc1)C1c2cc(Cl)ccc2C(=O)N1Cc1ccccc1-c1ccccc1 (stereo not drawn) [2-(biphenyl-2-ylmethyl)-6-chloro-3-oxo-N-{[6-(trifluoromethyl)pyridin-3-yl]methyl}isoindoline-1-carboxamide]
  IC50: 1500 nM

## CCNC(=O)C1c2cc(Cl)ccc2C(=O)N1Cc1ccccc1-c1ccccc1 (stereo not drawn) [2-(biphenyl-2-ylmethyl)-6-chloro-N-ethyl-3-oxoisoindoline-1-carboxamide]
  IC50: 1000 nM

## O=C(NCCCC(F)(F)F)C1c2cc(F)ccc2C(=O)N1Cc1ccccc1-c1ccccc1 (stereo not drawn) [2-(biphenyl-2-ylmethyl)-6-fluoro-3-oxo-N-(4,4,4-trifluorobutyl)isoindoline-1-carboxamide]
  IC50: 2700 nM

## CCCNC(=O)C1c2cc(F)ccc2C(=O)N1Cc1ccccc1-c1ccccc1 (stereo not drawn) [2-(biphenyl-2-ylmethyl)-6-fluoro-3-oxo-N-propylisoindoline-1-carboxamide]
  IC50: 2800 nM

## N#Cc1ccc(CNC(=O)C2c3ccccc3C(=O)N2Cc2ccccc2-c2ccccc2)cc1 (stereo not drawn) [2-(biphenyl-2-ylmethyl)-N-(4-cyanobenzyl)-3-oxoisoindoline-1-carboxamide]
  IC50: 2800 nM

## O=C(NCc1ccc(CNC(=O)C2c3ccccc3C(=O)N2Cc2ccccc2-c2ccccc2)cc1)C(F)F (stereo not drawn) [2-(biphenyl-2-ylmethyl)-N-(4-{[(difluoroacetyl)amino]methyl}benzyl)-3-oxoisoindoline-1-carboxamide]
  IC50: 2400 nM

## Cc1c(OCF)ccc2c1C(=O)N(Cc1ccccc1-c1ccccc1)C2C(=O)NC(C)(C)C (stereo not drawn) [2-(biphenyl-2-ylmethyl)-N-(tert-butyl)-5-(fluoromethoxy)-4-methyl-3-oxoisoindoline-1-carboxamide]
  IC50: 1700 nM

## COc1ccc2c(c1C)C(=O)N(Cc1ccccc1-c1ccccc1)C2C(=O)NC(C)(C)C (stereo not drawn) [2-(biphenyl-2-ylmethyl)-N-(tert-butyl)-5-methoxy-4-methyl-3-oxoisoindoline-1-carboxamide]
  IC50: 2200 nM

## CC(C)(C)NC(=O)C1c2cc(Cl)ccc2C(=O)N1Cc1ccccc1-c1ccccc1 (stereo not drawn) [2-(biphenyl-2-ylmethyl)-N-(tert-butyl)-6-chloro-3-oxoisoindoline-1-carboxamide]
  IC50: 1600 nM

## CC(C)(C)NC(=O)C1c2cc(C#N)ccc2C(=O)N1Cc1ccccc1-c1ccccc1 (stereo not drawn) [2-(biphenyl-2-ylmethyl)-N-(tert-butyl)-6-cyano-3-oxoisoindoline-1-carboxamide]
  IC50: 2400 nM

## CC(C)(C)NC(=O)C1c2cc(F)ccc2C(=O)N1Cc1ccccc1-c1ccccc1 (stereo not drawn) [2-(biphenyl-2-ylmethyl)-N-(tert-butyl)-6-fluoro-3-oxoisoindoline-1-carboxamide]
  IC50: 6700 nM

## CC(C)(C)NC(=O)C1c2c(O)cccc2C(=O)N1Cc1ccccc1-c1ccccc1 (stereo not drawn) [2-(biphenyl-2-ylmethyl)-N-(tert-butyl)-7-hydroxy-3-oxoisoindoline-1-carboxamide]
  IC50: 3000 nM

## O=C(NCc1ccc(F)cc1)C1c2ccccc2C(=O)N1C(c1ccccc1)c1ccccc1 (stereo not drawn) [2-(diphenylmethyl)-N-(4-fluorobenzyl)-3-oxoisoindoline-1-carboxamide]
  IC50: 2500 nM

## CC(CN1C(=O)c2ccccc2C1C(=O)NCCCC(F)(F)F)c1ccc(Cl)cc1 (stereo not drawn) [2-[2-(4-chlorophenyl)propyl]-3-oxo-N-(4,4,4-trifluorobutyl)isoindoline-1-carboxamide]
  IC50: 1800 nM

## CC(CN1C(=O)c2ccccc2C1C(=O)NCc1ccccc1C(F)(F)F)c1ccc(Cl)cc1 (stereo not drawn) [2-[2-(4-chlorophenyl)propyl]-3-oxo-N-[2-(trifluoromethyl)benzyl]isoindoline-1-carboxamide]
  IC50: 700 nM

## CCCNC(=O)C1c2ccccc2C(=O)N1CC(C)c1ccc(Cl)cc1 (stereo not drawn) [2-[2-(4-chlorophenyl)propyl]-3-oxo-N-propylisoindoline-1-carboxamide]
  IC50: 1300 nM

## CC(CN1C(=O)c2ccccc2C1C(=O)NCc1ccc(C(F)(F)F)nc1)c1ccc(Cl)cc1 (stereo not drawn) [2-[2-(4-chlorophenyl)propyl]-3-oxo-N-{[6-(trifluoromethyl)pyridin-3-yl]methyl}isoindoline-1-carboxamide]
  IC50: 780 nM

## CCCNC(=O)C1c2cc(F)ccc2C(=O)N1CC(C)c1ccc(Cl)cc1 (stereo not drawn) [2-[2-(4-chlorophenyl)propyl]-6-fluoro-3-oxo-N-propylisoindoline-1-carboxamide]
  IC50: 2300 nM

## CC(CN1C(=O)c2ccccc2C1C(=O)NCc1ccc(C#N)cc1)c1ccc(Cl)cc1 (stereo not drawn) [2-[2-(4-chlorophenyl)propyl]-N-(4-cyanobenzyl)-3-oxoisoindoline-1-carboxamide]
  IC50: 1200 nM

## CC(CN1C(=O)c2ccccc2C1C(=O)NCc1ccc(F)cc1)c1ccc(Cl)cc1 (stereo not drawn) [2-[2-(4-chlorophenyl)propyl]-N-(4-fluorobenzyl)-3-oxoisoindoline-1-carboxamide]
  IC50: 1900 nM

## CC(CN1C(=O)c2ccccc2C1C(=O)NCCc1c[nH]c2ccccc12)c1ccc(Cl)cc1 (stereo not drawn) [2-[2-(4-chlorophenyl)propyl]-N-[2-(1H-indol-3-yl)ethyl]-3-oxoisoindoline-1-carboxamide]
  IC50: 620 nM

## CC(CN1C(=O)c2ccccc2C1C(=O)NCc1ccc(N(C)C)cc1)c1ccc(Cl)cc1 (stereo not drawn) [2-[2-(4-chlorophenyl)propyl]-N-[4-(dimethylamino)benzyl]-3-oxoisoindoline-1-carboxamide]
  IC50: 1800 nM

## CC(CN1C(=O)c2ccccc2C1C(=O)NCc1ccc2c(c1)OC(F)(F)O2)c1ccc(Cl)cc1 (stereo not drawn) [2-[2-(4-chlorophenyl)propyl]-N-[(2,2-difluoro-1,3-benzodioxol-5-yl)methyl]-3-oxoisoindoline-1-carboxamide]
  IC50: 580 nM
